In PubChem BioAssay AID1845212 (Molecular Pharmacology Branch, DTP, NCI, 2023):

System: NCI-H719 tumor spheroids, viability
Assay: Anticancer human tumor NCI-H719 cell line growth inhibition;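 further: spheroids exposed to compounds for seven days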;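 on viability, T/C: percent viability relative to DMSO vehicle control as 100%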
Conditions: spheroids with HUVEC and MSC; for IC50: curve of first compound; for viability, T/C: stronger effect = lower value
How it was run: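 Single agents and combinations were tested on spheroids built from tumor cells plus HUVEC and hMSC, at half-log dilutions starting at or near clinical Cmax, else 10 microM; final DMSO 0.25% (v/v).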

[1] = second compound 1 µM, first compound 0.00949 µM
[2] = second compound 1 µM, first compound 0.03 µM
[3] = second compound 1 µM, first compound 0.0949 µM
[4] = second compound 1 µM, first compound 0.3 µM
[5] = second compound 1 µM, first compound 0.949 µM
[6] = second compound 1 µM, first compound 3 µM
[7] = second compound 3.16 µM, first compound 0.00949 µM
[8] = second compound 3.16 µM, first compound 0.03 µM
[9] = second compound 3.16 µM, first compound 0.0949 µM
[10] = second compound 3.16 µM, first compound 0.3 µM
[11] = second compound 3.16 µM, first compound 0.949 µM
[12] = second compound 3.16 µM, first compound 3 µM
[13] = second compound 10 µM, first compound 0.00949 µM
[14] = second compound 10 µM, first compound 0.03 µM
[15] = second compound 10 µM, first compound 0.0949 µM
[16] = second compound 10 µM, first compound 0.3 µM
[17] = second compound 10 µM, first compound 0.949 µM
[18] = second compound 10 µM, first compound 3 µM
[19] = second compound 31.6 µM, first compound 0.00949 µM
[20] = second compound 31.6 µM, first compound 0.03 µM
[21] = second compound 31.6 µM, first compound 0.0949 µM
[22] = second compound 31.6 µM, first compound 0.3 µM
[23] = second compound 31.6 µM, first compound 0.949 µM
[24] = second compound 31.6 µM, first compound 3 µM
[25] = second compound 100 µM, first compound 0.00949 µM
[26] = second compound 100 µM, first compound 0.03 µM
[27] = second compound 100 µM, first compound 0.0949 µM
[28] = second compound 100 µM, first compound 0.3 µM
[29] = second compound 100 µM, first compound 0.949 µM
[30] = second compound 100 µM, first compound 3 µM

CNCc1ccc(-c2cc(-c3nc(-c4ccc(S(=O)(=O)C(C)C)cc4)cnc3N)on2)cc1 + Cn1nnc2c(C(N)=O)ncn2c1=O
IC50 (second compound 1 µM): 131 nM
IC50 (second compound 3.16 µM): 95.4 nM
IC50 (second compound 10 µM): 162 nM
IC50 (second compound 31.6 µM): 94.4 nM
IC50 (second compound 100 µM): 33.6 nM
viability, T/C [1]: 88.2%
viability, T/C [2]: 95%
viability, T/C [3]: 43.5%
viability, T/C [4]: 39%
viability, T/C [5]: 8.27%
viability, T/C [6]: 0.15%
viability, T/C [7]: 97.6%
viability, T/C [8]: 94.2%
viability, T/C [9]: 46.7%
viability, T/C [10]: 18.9%
viability, T/C [11]: 9.22%
viability, T/C [12]: 0.14%
viability, T/C [13]: 101%
viability, T/C [14]: 93.7%
viability, T/C [15]: 80.2%
viability, T/C [16]: 15%
viability, T/C [17]: 8.28%
viability, T/C [18]: 18.1%
viability, T/C [19]: 105%
viability, T/C [20]: 106%
viability, T/C [21]: 49.8%
viability, T/C [22]: 15.7%
viability, T/C [23]: 8.28%
viability, T/C [24]: 37.8%
viability, T/C [25]: 80%
viability, T/C [26]: 52.8%
viability, T/C [27]: 24.4%
viability, T/C [28]: 9.66%
viability, T/C [29]: 39.1%
viability, T/C [30]: 0.23%

Cc1sc2c(c1C)C(c1ccc(Cl)cc1)=NC(CC(=O)Nc1ccc(O)cc1)c1nnc(C)n1-2 (stereo not given) + Cn1nnc2c(C(N)=O)ncn2c1=O
IC50 (second compound 1 µM): 79.9 nM
IC50 (second compound 3.16 µM): 137 nM
IC50 (second compound 10 µM): 201 nM
IC50 (second compound 31.6 µM): 71 nM
IC50 (second compound 100 µM): 54.1 nM
viability, T/C [1]: 90.8%
viability, T/C [2]: 80.5%
viability, T/C [3]: 41.9%
viability, T/C [4]: 20.6%
viability, T/C [5]: 4.49%
viability, T/C [6]: 3.76%
viability, T/C [7]: 95.2%
viability, T/C [8]: 98.7%
viability, T/C [9]: 65.9%
viability, T/C [10]: 15.6%
viability, T/C [11]: 4.84%
viability, T/C [12]: 3.28%
viability, T/C [13]: 96.5%
viability, T/C [14]: 89%
viability, T/C [15]: 73.1%
viability, T/C [16]: 39.8%
viability, T/C [17]: 4.17%
viability, T/C [18]: 2.94%
viability, T/C [19]: 107%
viability, T/C [20]: 104%
viability, T/C [21]: 31.9%
viability, T/C [22]: 14.3%
viability, T/C [23]: 3.77%
viability, T/C [24]: 2.95%
viability, T/C [25]: 88%
viability, T/C [26]: 65%
viability, T/C [27]: 37%
viability, T/C [28]: 6.38%
viability, T/C [29]: 3.72%
viability, T/C [30]: 3%

Cn1ncnc1[C@H]1c2n[nH]c(=O)c3cc(F)cc(c23)N[C@@H]1c1ccc(F)cc1 + Cn1nnc2c(C(N)=O)ncn2c1=O
IC50 (second compound 1 µM): < 9.49 nM
IC50 (second compound 3.16 µM): < 9.49 nM
IC50 (second compound 10 µM): < 9.49 nM
IC50 (second compound 31.6 µM): < 9.49 nM
IC50 (second compound 100 µM): < 9.49 nM
viability, T/C [1]: 18.9%
viability, T/C [2]: 7.46%
viability, T/C [3]: 7.66%
viability, T/C [4]: 7.07%
viability, T/C [5]: 6.65%
viability, T/C [6]: 7.52%
viability, T/C [7]: 14.8%
viability, T/C [8]: 7.76%
viability, T/C [9]: 7.04%
viability, T/C [10]: 7.11%
viability, T/C [11]: 7.41%
viability, T/C [12]: 8.3%
viability, T/C [13]: 7.72%
viability, T/C [14]: 6.58%
viability, T/C [15]: 7.6%
viability, T/C [16]: 6.29%
viability, T/C [17]: 30.5%
viability, T/C [18]: 8.25%
viability, T/C [19]: 6.42%
viability, T/C [20]: 7.02%
viability, T/C [21]: 7.1%
viability, T/C [22]: 7.06%
viability, T/C [23]: 7.26%
viability, T/C [24]: 9.15%
viability, T/C [25]: 7.03%
viability, T/C [26]: 6.67%
viability, T/C [27]: 6.67%
viability, T/C [28]: 7.34%
viability, T/C [29]: 7.7%
viability, T/C [30]: 9.27%
